Results as given in patent US9220787B2, “Vitamin E conjugates, and their uses as antioxidants and prodrug delivery vehicles” (Board of Supervisors of Louisiana State University And …, priority 2010, dated 2015).

Assays:
[1] = test system: α-tocopherol transfer protein (α-TTP); conditions: relative affinity, RRR-α-tocopherol essentially 100%; cited from earlier work
[2] = DPPH assay (antioxidant activity, free radical scavenging); type: biochemical; conditions: 5 concentrations, 0.1 mM DPPH, water:methanol 1:1, reading after 30 min at 518 nm, read-out: IC50, the point at which 50% of DPPH had been reduced
Text: Assays that may be used to measure free radical scavenging properties include, for example, the DPPH assay and the ABTS assay. The 1,1-diphenyl-2-picryl hydrazyl (DPPH) radical is a stable free radical of purple color. Adding an antioxidant reduces the DPPH radical, which can be observed by color change (to yellow) in a spectrophotometer, for example by measuring absorbance at 518 nm. Mixing 2,2-α-azino-bis-(3-ethylbenzthiazoline-6-sulfonic acid) (ABTS) and hydrogen peroxide produces the ABTS radical (ABTS^●). Subsequent incubation with peroxidase produces the radical cation ABTS^•+. Adding an antioxidant causes an attenuation of the color change, which can be measured for example at 734 nm. The activity of an antioxidant is conventionally expressed as the concentration of an equivalent millimolar standard Trolox solution.
A stock solution of DPPH in methanol, 0.4 mM was prepared and stored in the dark at −20° C. prior to use. A test sample was diluted with water (pH=3.5 prepared by addition of acetic acid) to 1 ml. The sample was then added to the dilute DPPH stock in methanol to obtain a final sample volume of 2 ml with a 0.1 mM DPPH concentration. The water:methanol ratio was 1:1 (v/v). A blank was prepared with 1 ml of water (pH=3.5) and pure methanol. […] Absorption readings were taken after 30 min at 518 nm using a Geminys 6 spectrophotometer (Thermo Scientific, Waltham, Mass.). […]

IC50 [2]	SMILES	affinity of Alpha-TTP [1]
	Cc1c(C)c2c(c(C)c1O)CC[C@@](C)(CCC[C@H](C)CCC[C@H](C)CCCC(C)C)O2 [RRR-α-tocopherol]	~100%
	Cc1c(C)c2c(c(C)c1O)CCC(C)(C(=O)O)O2 (stereo not shown) [Trolox, 6-hydroxy-2,5,7,8-tetramethylchroman-2-carboxylic acid]	9%
24.9 ± 1.4 µM	COC(=O)C(Cc1c[nH]cn1)NC(=O)CCNC(=O)CCCCCCCCCCCC[C@]1(C)CCc2c(C)c(O)c(C)c(C)c2O1 (stereo partly drawn) [VECAR, methyl 2-(3-(13-((R)-6-hydroxy-2,5,7,8-tetramethylchroman-2-yl)tridecanamido)propanamido)-3-(1H-imidazol-4-yl)propanoate]	
24.4 ± 1.5 µM	Cc1c(C)c2c(c(C)c1O)CC[C@@](C)(CCC[C@H](C)CCC[C@H](C)CCCC(C)C)O2 [alpha-tocopherol]	
	CC(=O)Oc1c(C)c(C)c2c(c1C)CCC(C)(CCC[C@H](C)CCC[C@H](C)CCCC(C)C)O2 (stereo partly drawn) [α-tocopherol acetate]	2%
	Cc1cc(O)c(C)c2c1O[C@](C)(CCC[C@H](C)CCC[C@H](C)CCCC(C)C)CC2 [β-tocopherol]	38%
	Cc1c(O)cc2c(c1C)O[C@](C)(CCC[C@H](C)CCC[C@H](C)CCCC(C)C)CC2 [γ-tocopherol]	9%
